Data taken from US11547102B2, “Method for screening saltiness enhancer using saltiness receptor” (NISSIN FOODS HOLDINGS CO., LTD., priority 2017, dated 2023).

Experiments:
mouse TMC4 (mTMC4) = biological target: T1, mouse TMC4 (mTMC4) (Mus musculus, UniProt Q7TQ65); test: whole cell patch clamp assay using HEK293T cells expressing mTMC4; format: cell-based; conditions: 100 μM added to the 134 mM NaCl buffer, 25° C.
T1 construct: expressed in transfected cells; host or cells: HEK293T
T1 sequence (Q7TQ65 1-694): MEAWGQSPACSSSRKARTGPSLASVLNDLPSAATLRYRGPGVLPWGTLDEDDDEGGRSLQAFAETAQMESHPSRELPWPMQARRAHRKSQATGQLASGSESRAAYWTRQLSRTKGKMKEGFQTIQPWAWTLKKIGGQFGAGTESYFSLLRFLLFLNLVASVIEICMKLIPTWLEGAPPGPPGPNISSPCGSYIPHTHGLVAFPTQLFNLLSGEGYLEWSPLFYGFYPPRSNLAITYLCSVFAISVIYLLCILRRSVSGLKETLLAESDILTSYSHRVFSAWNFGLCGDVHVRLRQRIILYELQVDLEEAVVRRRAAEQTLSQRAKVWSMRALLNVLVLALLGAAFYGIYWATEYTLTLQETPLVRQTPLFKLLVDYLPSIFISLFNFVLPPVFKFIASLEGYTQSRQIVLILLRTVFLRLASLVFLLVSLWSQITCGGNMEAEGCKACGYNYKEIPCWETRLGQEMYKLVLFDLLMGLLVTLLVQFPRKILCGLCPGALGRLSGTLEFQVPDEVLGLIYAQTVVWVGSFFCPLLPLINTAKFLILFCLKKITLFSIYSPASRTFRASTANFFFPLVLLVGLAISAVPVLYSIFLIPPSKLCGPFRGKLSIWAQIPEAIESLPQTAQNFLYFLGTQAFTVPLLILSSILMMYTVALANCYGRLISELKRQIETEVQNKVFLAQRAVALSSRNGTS
Protocol: In order to check electrophysiological properties of TMC4, a whole cell patch clamp assay (whole cell recording) was performed using HEK293T cells expressing TMC4.
In order to express mouse TMC4 (mTMC4) in HEK293T cells, a plasmid vector pIRES2-AcGFP1 (Clontech Laboratories, Inc.) having a CMV promoter was used. An expression construct in which mTMC4 (sequence of Accession No. NM_181820.2 cloned from cDNA derived from mouse circumvallate papillae epithelium) was inserted between restriction enzyme EcoR1 site and Not1 site of pIRES2-AcGFP1 was transfected at a ratio of 1 μg/35 mm dish. As a transfection reagent, Lipofectamine™ LTX Reagent with PLUS & Reagent™ (Thermo Fisher Scientific K.K.) was used. […]
In the whole cell patch clamp recording using the HEK293T cells, Axopatch 200B (Molecular Devices, LLC.) was used as an amplifier, and digital data was obtained from Digidata 1550 (Axon Instruments, Union City, Calif., USA). The obtained data was analyzed using software pCLAMP 10.2 (Axon Instruments). […]
The measurement was performed with the membrane potential of mTMC4-expressing cells fixed at −60 mV with extracellular fluids successively perfused. A step pulse (400 ms) from −100 mV to +100 mV at intervals of 10 mV was applied to each extracellular fluid to create an I-V curve, and thus, voltage-current characteristics of mTMC4 obtained with different extracellular fluids were measured. […]

human TMC4 (hTMC4) = biological target: T2, human TMC4 (hTMC4) (Homo sapiens, UniProt Q7Z404); test: whole cell patch clamp assay using HEK293T cells expressing hTMC4; format: cell-based; conditions: 100 μM added to vehicle solution (134 mM NaCl), same cells compared
T2 construct: host or cells: HEK293T
T2 sequence (Q7Z404 1-706 isoform Q7Z404-1): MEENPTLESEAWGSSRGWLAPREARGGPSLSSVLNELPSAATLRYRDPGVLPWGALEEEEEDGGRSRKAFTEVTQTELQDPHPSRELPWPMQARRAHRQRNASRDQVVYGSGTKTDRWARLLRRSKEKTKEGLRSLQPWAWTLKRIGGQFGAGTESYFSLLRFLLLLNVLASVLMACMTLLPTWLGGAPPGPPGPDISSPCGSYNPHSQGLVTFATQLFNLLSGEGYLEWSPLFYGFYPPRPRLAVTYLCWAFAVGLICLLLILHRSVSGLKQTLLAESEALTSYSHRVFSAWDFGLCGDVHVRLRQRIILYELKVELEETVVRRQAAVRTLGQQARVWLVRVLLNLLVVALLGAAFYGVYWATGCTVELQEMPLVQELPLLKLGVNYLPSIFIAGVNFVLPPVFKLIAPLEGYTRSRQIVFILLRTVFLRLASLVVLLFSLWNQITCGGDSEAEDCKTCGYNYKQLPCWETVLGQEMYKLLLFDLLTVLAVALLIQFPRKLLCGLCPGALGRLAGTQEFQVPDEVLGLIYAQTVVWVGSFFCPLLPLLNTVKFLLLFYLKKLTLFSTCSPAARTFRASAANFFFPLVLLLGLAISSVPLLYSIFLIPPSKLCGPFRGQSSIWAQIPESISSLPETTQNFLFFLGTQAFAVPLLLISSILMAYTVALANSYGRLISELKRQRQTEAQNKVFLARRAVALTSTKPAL
Protocol: In order to observe influence of a known salty taste enhancer on TMC4, the whole cell patch clamp assay (whole cell recording) was performed by using HEK293T cells expressing human TMC4 (hTMC4).
The whole cell patch clamp assay was performed in the same manner as in Example 2 except for the following:
1) HEK293T cells expressing human TMC4 (hTMC4) were used; and
2) a 134 mM NaCl solution was used as a vehicle solution, an extracellular fluid obtained by adding 100 μM arginine hydrochloride (Arg-HCl) as a salty taste enhancer to the vehicle solution, and an extracellular fluid (control not enhancing salty taste) obtained by adding 100 μM sucrose or maltose to the vehicle solution were used. A Cl^− current flowing via TMC4 was compared.
As for the hTMC4, a clone of Accession No. BC025323 was purchased from Dharmacon, and inserted between restriction enzyme EcoR1 site and Not1 site of the plasmid pIRES2-AcGFP1 to create an expression construct in the same manner as that for the mTMC4.

Row | SMILES | outward Cl- current (mouse TMC4 (mTMC4)) | Cl- current flowing via TMC4 (human TMC4 (hTMC4))
1 | O=C(O)c1cc([N+](=O)[O-])ccc1NCCCc1ccccc1 [NPPB, 5-Nitro-2-(3-phenylpropylamino) benzoic acid] | completely disappeared | –
2 | OC[C@H]1O[C@H](O[C@H]2[C@H](O)[C@@H](O)C(O)O[C@@H]2CO)[C@H](O)[C@@H](O)[C@@H]1O (mixture of isomers) [maltose] | – | did not change
3 | Cl.N=C(N)NCCC[C@H](N)C(=O)O [arginine hydrochloride] | – | increased
4 | OC[C@H]1O[C@@](CO)(O[C@H]2O[C@H](CO)[C@@H](O)[C@H](O)[C@H]2O)[C@@H](O)[C@@H]1O [sucrose] | – | did not change
